Patent publication US9918971B2, “Aerosol formulations of granisetron and uses thereof” (LUXENA PHARMACEUTICALS, INC., priority 2013, dated 2018)
≈ marks a conversion by molar mass, not a printed value. Where “and” joins values, the source holds several entries; their conditions need not be identical. Equal entries are not always repeated. Where two headings read alike, the source gives them in different places. Values belong to the molecule of their own block, whether it stands above or below them.

Legend:
[1] = Particle size distribution of jet milled granisetron fine powder by Malvern Spraytec
[2] = Solubility of granisetron in pMDI medium; assay type: physicochemical
Protocol: The solubility of granisetron was measured in a pMDI medium of HFA 134 as well as a mixture of HFA 134 and ethanol.

[3] = Particle size distribution of spray dried granisetron fine powder by Malvern Mastersizer; details: typical particle size distribution

- mass less than 5 μm in diameter ([1]; after fifth milling cycle): approximately 75%
- D10 ([1]; milling cycle 0): 3.77 μm
- D50 ([1]; milling cycle 0): 50.21 μm
- D90 ([1]; milling cycle 0): 445.02 μm
- D10 ([1]; milling cycle 1): 2.22 μm
- D50 ([1]; milling cycle 1): 7.01 μm
- D90 ([1]; milling cycle 1): 20.59 μm
- D10 ([1]; milling cycle 3): 1.44 μm
- D50 ([1]; milling cycle 3): 3.99 μm
- D90 ([1]; milling cycle 3): 9.90 μm
- D10 ([1]; milling cycle 5): 1.59 μm
- D50 ([1]; milling cycle 5): 3.79 μm
- D90 ([1]; milling cycle 5): 8.13 μm
SMILES: CN1C2CCCC1CC(NC(=O)c1nn(C)c3ccccc13)C2.Cl (stereo not shown) [jet milled granisetron, Granisetron HCl]

- Solubility, single determinations ([2]; HFA 134a with Ethanol (9:1), ~24 Hours): 84.173 µg/mL and 81.496 µg/mL
- Solubility ([2]; HFA 134a, 24 hours, converted with gravity 1.21 g/mL): 0.00018 % w/w
- Solubility ([2]; HFA 134a, 10 days, converted with gravity 1.21 g/mL): 0.00108 % w/w
- Solubility ([2]; HFA 134 and ethanol, 24 hours): 0.00706 % w/w
- Solubility ([2]; HFA 134 and ethanol, 10 days): 0.00681 % w/w
- solubility at 10 days ([2]; pMDI medium (HFA 134a propellant), organic solvent or mixture, HFA 134a, 10 days, read-out: Solubility, Average (RSD)): 13.1 µg/mL (≈ 42 µM)
- solubility at 10 days ([2]; pMDI medium (HFA 134a propellant), organic solvent or mixture, HFA 134a, 10 days, read-out: Solubility, single determinations): 13.2 µg/mL (≈ 42.1 µM)
- Solubility ([2]; pMDI medium (HFA 134a propellant), organic solvent or mixture, HFA 134a, ~24 Hours, read-out: Solubility, Average (RSD)): 2.17 µg/mL (≈ 6.95 µM)
- solubility at 10 days ([2]; pMDI medium (HFA 134a with ethanol), organic solvent or mixture, HFA 134a with Ethanol (9:1), 10 days, read-out: Solubility, Average (RSD)): 82.4 µg/mL (≈ 264 µM)
- solubility at 10 days ([2]; pMDI medium (HFA 134a with ethanol), organic solvent or mixture, HFA 134a with Ethanol (9:1), 10 days, read-out: Solubility, single determinations): 79.9 µg/mL (≈ 256 µM)
- Solubility ([2]; pMDI medium (HFA 134a with ethanol), organic solvent or mixture, HFA 134a with Ethanol (9:1), ~24 Hours, read-out: Solubility, Average (RSD)): 85.5 µg/mL (≈ 274 µM)
- Solubility ([2]; pMDI medium (HFA 134a with ethanol), organic solvent or mixture, HFA 134a with Ethanol (9:1), ~24 Hours, read-out: Solubility, single determinations): 90.8 µg/mL (≈ 291 µM)
SMILES: CN1C2CCCC1CC(NC(=O)c1nn(C)c3ccccc13)C2 (stereo not shown) [granisetron]
- Solubility, single determinations ([2]; HFA 134a with Ethanol (9:1), 10 days): 74.29 µg/mL and 97.99 µg/mL and 73.93 µg/mL
- Solubility, single determinations ([2]; HFA 134a, 10 days): 14.84 µg/mL and 10.26 µg/mL and 11.51 µg/mL and 15.77 µg/mL

- Cumulative % on <9 μm [3]: 98.0%
- D10 [3]: 1.01 μm
- D50 [3]: 2.33 μm
- D90 [3]: 5.34 μm
SMILES: CN1C2CCCC1CC(NC(=O)c1nn(C)c3ccccc13)C2 (stereo not shown) [Spray Dried Granisetron Fine Powder, granisetron]
